Data from patent publication US12433900B2, “Intravitreal corticosteroid extended release implant and methods of use” (Eyedea Bio, LLC, priority 2021, dated 2025).

Experiment: Calculated Octanol Solubility Index (OSI) and Topological Polar Surface Area (TPSA) of the API
Conditions: calculated using the log P and maximal aqueous solubility
Source text: The interactions between API and complexation agent and/or dispersal medium can be predicted based on the Octanol Solubility Index (OSI) and Topological Polar Surface Area (TPSA) of the API. TPSA is a calculated measure of a molecule's polarity based on the number of polar atoms contained in the molecule. OSI is a measure of compound lipophilicity and can be calculated using the log P and maximal aqueous solubility of the compound by the formula:

Structure (SMILES) | OSI (Octanol Solubility Index)
C[C@@H]1C[C@H]2[C@@H]3CCC4=CC(=O)C=C[C@]4(C)[C@@]3(F)[C@@H](O)C[C@]2(C)[C@@]1(O)C(=O)CO [dexamethasone free base, 9α-fluoro-11β,17α,21-trihydroxy-16α-methylpregna-1,4-diene-3,20-dione] | 3.85
C[C@@H]1C[C@H]2[C@@H]3CCC4=CC(=O)C=C[C@]4(C)[C@@]3(F)[C@@H](O)C[C@]2(C)[C@@]1(O)C(=O)COP(=O)(O)O [dexamethasone phosphate] | 3.71
CC1(C)O[C@@H]2C[C@H]3[C@@H]4C[C@H](F)C5=CC(=O)C=C[C@]5(C)[C@@]4(F)[C@@H](O)C[C@]3(C)[C@]2(C(=O)CO)O1 [fluocinolone acetonide, 6α,9α-difluoro-11β,16α,17α,21-tetrahydroxypregna-1,4-diene-3,20-dione cyclic 16α,17α-acetal with acetone] | 3.48
